# Activity calls are given as the source filed them.
# How the values were obtained:
# Albumin = Albumin (Bos taurus, UniProt P02769); test: Counterscreen for inhibitors of T-cell receptor (TCR)-CD3 interaction: Fluorescence-based biochemical high throughput dose response assay to identify inhibitors of T-cell receptor (TCR)-CD3 interaction using a TAMRA-labeled BSA probe.; assay type: functional
# [1] = glucagon-like peptide-1 release potency in STC-1, concentration-response, half-maximal inhibitory concentration in the STC-1 line (AID 1117345); assay type: functional, cell-based
# INS1 = test: INS-1E survival protection against cytokine death – cell-based, luminescence, retest, dose response (AID 449756); assay type: functional; settings: Rattus norvegicus;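 note: cell death triggered by IL-1 beta plus TNF-alpha plus IFN-gamma mixture; protective hits raise ATP signal compared with cytokine alone wells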
# [2] = Luminescence Cell-Based Dose Retest to Confirm Inhibitors of Cancer Stem Cells. [Related pubchem assays (depositor defined):AID2717, AID2721]; assay type: functional; settings: Homo sapiens
# [3] = molecular target: T1, Ubiquitin-conjugating enzyme E2 N (Homo sapiens, UniProt P61088); assay type: functional;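 note: Dose-response confirmation in a TR-FRET assay detecting UBC13-driven polyubiquitin chain formation, inhibition measured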
# T1 sequence (P61088 whole entry): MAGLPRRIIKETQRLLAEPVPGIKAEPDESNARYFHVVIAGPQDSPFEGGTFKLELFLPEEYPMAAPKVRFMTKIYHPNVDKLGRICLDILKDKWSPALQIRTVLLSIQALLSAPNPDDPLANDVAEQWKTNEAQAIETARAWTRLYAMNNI
# [4] = reduction of Shn3 3'UTR-driven luciferase in osteoblasts – cell-based, Clone20 osteoblasts, firefly luciferase, cherry-picked, dose response (AID 624132); assay type: functional;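 note: firefly luciferase luminescence from reporter carrying the Shn3 3'UTR in osteoblasts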
# [5] = non-specific 3'UTR reporter inhibition in Clone20-Shn3RL – cell-based, Renilla luciferase, cherry-picked, counter-screen for Shn3 inhibitor project, dose response (AID 624133); assay type: functional
# [6] = Potency on glucagon-like peptide 1 release, dose-response in NCI-H716 cell line, half maximal inhibitory concentration (AID 1117344); assay type: functional, cell-based
# [7] = microbe, parasite or virus in culture; assay type: functional; settings: Mycobacterium tuberculosis
# [8] = molecular target: T2, Oxysterols receptor LXR-beta (Homo sapiens, UniProt P55055); assay type: functional, cell-based;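 note: Cell-based luminescence dose-response assay of agonist activity at LXR, run as a confirmatory counterscreen to a daf-12 agonist screen; HEK293 cells with Gal4-LXR fusion and GAL4-driven luciferase reporter; agonist potency from rising luciferase signal of a Gal4-LXR reporter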
# T2 sequence (P55055 whole entry): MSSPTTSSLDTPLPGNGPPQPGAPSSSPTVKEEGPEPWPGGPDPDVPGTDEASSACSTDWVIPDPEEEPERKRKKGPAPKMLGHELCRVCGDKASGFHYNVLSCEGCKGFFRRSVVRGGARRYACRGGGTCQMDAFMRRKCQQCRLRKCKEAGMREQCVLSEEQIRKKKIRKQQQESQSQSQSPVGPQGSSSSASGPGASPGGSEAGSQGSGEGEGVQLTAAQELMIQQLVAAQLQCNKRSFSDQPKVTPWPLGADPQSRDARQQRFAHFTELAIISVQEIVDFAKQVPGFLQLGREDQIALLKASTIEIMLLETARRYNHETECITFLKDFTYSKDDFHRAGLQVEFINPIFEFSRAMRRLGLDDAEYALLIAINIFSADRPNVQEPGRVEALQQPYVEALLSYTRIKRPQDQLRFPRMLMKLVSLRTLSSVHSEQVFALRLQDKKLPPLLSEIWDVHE
# [9] = blockade of melanocortin 4 receptor signaling – cell-based, plate reader, cherry pick, counter-screen for LGR2 antagonist project, dose response (AID 743444); assay type: functional;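 note: transfected HEK 293 cells stimulated with alpha-MSH peptide; potency of inhibitors of the alpha-MSH evoked signal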
# [10] = A549 cell cytotoxicity, dose response, cytotoxicity control, plate reader, cherry-pick, antagonist series (AID 743412); assay type: functional, cell-based
# [11] = toxicity toward HepG2 liver cells – cell-based, plate reader, cherry-pick, antagonist series, cytotoxicity control, dose response (AID 743416); assay type: functional
# [12] = blockers of bursicon-stimulated LGR2 cAMP reporter – cell-based, HEK293, CRE-luciferase reporter, cherry pick, set 2, dose response (AID 743343); assay type: functional;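 note: transfected cells were stimulated with diluted bursicon conditioned medium after compound addition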
# [13] = HIV-1 Vif–A3G interaction blockers – biochemical, TR-FRET, GST-Vif 1-94, biotin-A3G peptide, dose response retest, primary screen (AID 1117319); assay type: functional;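 note: TR-FRET signal of purified GST-Vif binding a biotinylated A3G peptide; inhibitors lower the FRET signal by blocking Vif and A3G binding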
# [14] = molecular target: T3, Acyl-homoserine lactone acylase PvdQ (Pseudomonas aeruginosa (strain LESB58), UniProt Q9I194); test: PvdQ acylase enzyme activity blockers – biochemical, fluorescence, plate reader and imaging, cherry-picks, dose response (AID 493231)
# T3 sequence (Q9I194 whole entry): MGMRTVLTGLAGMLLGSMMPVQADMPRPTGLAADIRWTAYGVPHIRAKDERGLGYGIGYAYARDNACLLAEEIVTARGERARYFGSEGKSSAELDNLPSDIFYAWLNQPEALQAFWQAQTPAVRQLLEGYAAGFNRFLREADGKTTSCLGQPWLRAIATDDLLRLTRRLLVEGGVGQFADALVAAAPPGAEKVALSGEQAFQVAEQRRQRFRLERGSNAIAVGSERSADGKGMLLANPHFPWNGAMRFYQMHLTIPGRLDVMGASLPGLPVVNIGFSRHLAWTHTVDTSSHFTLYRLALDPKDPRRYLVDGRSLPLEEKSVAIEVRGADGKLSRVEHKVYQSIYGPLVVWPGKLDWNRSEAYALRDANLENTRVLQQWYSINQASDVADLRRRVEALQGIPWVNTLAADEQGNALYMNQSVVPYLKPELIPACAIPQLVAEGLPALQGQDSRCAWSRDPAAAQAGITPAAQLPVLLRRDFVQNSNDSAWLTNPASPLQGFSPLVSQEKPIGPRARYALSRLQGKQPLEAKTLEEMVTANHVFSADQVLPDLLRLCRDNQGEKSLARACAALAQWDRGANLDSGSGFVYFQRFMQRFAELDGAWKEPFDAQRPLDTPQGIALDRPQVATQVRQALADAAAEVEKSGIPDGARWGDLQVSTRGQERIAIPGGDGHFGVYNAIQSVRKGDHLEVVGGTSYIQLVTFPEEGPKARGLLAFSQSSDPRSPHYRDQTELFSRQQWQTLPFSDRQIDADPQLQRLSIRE
# [15] = viability loss in HEK293 cells – cell-based, plate reader, cherry-picked samples, cytotoxicity control, dose response (AID 743446); assay type: functional
# Chain of Albumin (P02769 whole entry): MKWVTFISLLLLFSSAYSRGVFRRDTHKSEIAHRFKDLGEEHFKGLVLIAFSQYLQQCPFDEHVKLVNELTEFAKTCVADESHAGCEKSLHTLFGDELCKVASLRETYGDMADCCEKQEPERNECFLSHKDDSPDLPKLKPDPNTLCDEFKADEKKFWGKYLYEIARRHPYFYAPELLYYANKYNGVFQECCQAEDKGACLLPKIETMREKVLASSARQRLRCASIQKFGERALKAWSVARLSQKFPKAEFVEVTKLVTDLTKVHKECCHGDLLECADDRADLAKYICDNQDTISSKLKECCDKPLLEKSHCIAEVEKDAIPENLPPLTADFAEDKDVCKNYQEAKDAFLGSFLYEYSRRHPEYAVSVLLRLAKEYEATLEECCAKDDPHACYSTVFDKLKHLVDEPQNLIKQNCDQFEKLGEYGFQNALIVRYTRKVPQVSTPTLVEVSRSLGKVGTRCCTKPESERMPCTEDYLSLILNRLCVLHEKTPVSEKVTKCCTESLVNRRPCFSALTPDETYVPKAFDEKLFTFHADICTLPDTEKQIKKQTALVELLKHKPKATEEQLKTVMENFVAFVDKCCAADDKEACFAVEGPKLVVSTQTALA
compound,measurement,setting,value
O=C(Cc1ccccc1)N/N=C/c1cc(Br)cc(Br)c1O,IC50,Albumin,> 94.1 µM (inactive)
CCCCCCCCNC(C)C(O)c1ccc(SC(C)C)cc1 (centres undefined) [SULOCTIDIL],IC50,[1],> 40 µM (inactive)
same,AC50,INS1,8.21 µM (active)
same,AC50,[2],2.11 µM (active)
same,IC50,[3],> 20 µM (inactive)
same,AC50,[4],3.94 µM (active)
same,AC50,[5],8.28 µM (active)
same,IC50,[6],13 µM (inactive)
same,CC50,[7],17.3 µM (active)
O=P1(O)C=C(c2ccccc2)OC(c2ccccc2)=C1,EC50,cells,> 67.5 µM (inactive)
same,EC50,[8],> 67.5 µM (inactive)
C=CC1=C(C)c2cc3[nH]c(cc4nc(cc5[nH]c(cc1n2)c(C)c5CCC(=O)O)C(CCC(=O)O)=C4C)c(C)c3C=C [PROTOPORPHYRIN DISODIUM],IC50,[1],> 40 µM (inactive)
same,IC50,[6],19.6 µM (inactive)
Cc1ccc(C(=O)NC2CCCCCCC2)c(Cl)c1,AC50,[9],5.7 µM (active)
same,AC50,[10],25.8 µM (active)
same,AC50,[11],25.6 µM (active)
same,AC50,[12],8.04 µM (active)
CN(C)c1ccc(/C=C/C#N)cc1,IC50,[13],> 100 µM (active)
COc1ccc(-c2nc3ccccc3s2)cc1,AC50,[9],2.75 µM (active)
same,AC50,[14],> 100 µM (inactive)
same,AC50,[10],42.9 µM (active)
same,AC50,[15],> 52 µM (inactive)
same,AC50,[11],> 52 µM (inactive)
same,AC50,[12],2.17 µM (active)

# — ChEMBL document CHEMBL1201862, “PubChem BioAssay data set” (2004)
